Test results from patent US20220017877A1, “BILIRUBIN OXIDASE ACTIVITY IMPROVING METHOD, AND BILIRUBIN OXIDASE PRODUCT” (OZEKI CORPORATION, priority 2018, published 2022).
Where two headings read alike, the source gives them in different places.

Target: T1, recombinant BOD (bilirubin oxidase) derived from Myrothecium verrucaria MT-1 (Albifimbria verrucaria, UniProt Q12737)
T1 construct: made in house; host or cells: Aspergillus sp
T1 sequence (Q12737 39-572): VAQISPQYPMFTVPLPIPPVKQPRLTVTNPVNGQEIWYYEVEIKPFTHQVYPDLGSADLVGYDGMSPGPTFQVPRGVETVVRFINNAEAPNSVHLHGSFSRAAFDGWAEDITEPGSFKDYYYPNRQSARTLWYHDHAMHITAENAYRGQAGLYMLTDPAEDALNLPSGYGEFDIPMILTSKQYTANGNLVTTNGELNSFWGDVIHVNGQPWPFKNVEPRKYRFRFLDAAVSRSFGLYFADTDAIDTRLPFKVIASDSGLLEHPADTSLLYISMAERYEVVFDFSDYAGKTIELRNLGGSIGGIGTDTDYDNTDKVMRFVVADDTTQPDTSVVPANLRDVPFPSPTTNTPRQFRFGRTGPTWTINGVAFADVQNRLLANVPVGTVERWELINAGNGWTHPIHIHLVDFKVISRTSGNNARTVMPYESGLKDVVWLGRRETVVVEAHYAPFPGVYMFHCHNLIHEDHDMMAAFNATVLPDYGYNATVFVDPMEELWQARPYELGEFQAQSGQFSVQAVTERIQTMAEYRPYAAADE
Test: BOD activity after leaving the BOD solution with an activity improving agent at 5 to 50° C. in a deoxygenated atmosphere (Test Example 2)
Format: biochemical
Conditions: for BOD activity increase at 5° C. compared with not lower than 10° C.: BOD containers left at 5° C.
Text: In Test Example 1, a BOD gene derived from a Myrothecium verrucaria MT-1 (GenBank accession number: D12579.1) was introduced into an Aspergillus sp., and then a recombinant BOD (hereinafter, also referred to simply as “BOD”) expressed in the Aspergillus sp. was purified by using a well-known technique and then used as the BOD. The BOD gene derived from the Myrothecium verrucaria MT-1 was codon-optimized in accordance with a gene sequence of the Aspergillus sp., and then introduced into the Aspergillus sp. Further, the BOD thus purified was dissolved in a 50 mM glycine-KOH (pH 8.5) buffer so that the concentration of the BOD became 1.0 mg/mL. Then, a resultant solution was used as a BOD enzyme solution.
The enzymatic activity of the BOD was measured as follows. To 1780 μL of a 50 mM potassium phosphate buffer (pH 6.5), 200 μL of a 20 mM ABTS substrate solution was added, so that a mixed solution (1980 μL) was prepared. This mixed solution was incubated for 1 min at 37° C. Thereafter, 20 μL of a solution containing the BOD (specifically, a BOD solution for evaluation, which will be described later) was added to the mixed solution, and a resultant mixed solution (2 mL) was incubated at 37° C. While the mixed solution was incubated, the absorbance of the mixed solution at a wavelength of 436 nm was measured immediately after that addition of the BOD solution for evaluation (at 0 seconds) and thereafter every 20 seconds. On the basis of (i) the absorbance of the mixed solution at a wavelength of 436 nm immediately after the addition of the BOD solution for evaluation and (ii) the absorbance of the mixed solution at a wavelength of 436 nm after a lapse of 1 minute from the addition of the BOD solution for evaluation, calculation was carried out for obtaining an increase rate per minute of the absorbance of the mixed solution at a wavelength of 436 nm after the addition of the BOD solution for evaluation. The BOD activity (unit) in the BOD solution for evaluation was calculated from the increase rate. In the present specification, the amount of enzyme for oxidizing 1 μmol of ABTS per minute was defined as one unit.
The following describes a specific test method in Test Example 2. A BOD solution containing an activity improving agent was prepared as in Test Example 1. Further, another BOD solution which contained no activity improving agent (to which no activity improving agent was added) was prepared and used as a control. In Test Example 2, L-ascorbic acid or uric acid was used as the activity improving agent. Moreover, the final concentration of L-ascorbic acid in the BOD solution was set to 4 mM, and the final concentration of uric acid in the BOD solution was set to 20 mM. In addition, in Test Example 2, the concentration of the BOD in the BOD enzyme solution was set to 3.0 mg/mL.
Each of the above BOD solutions and a deoxygenating agent (Anaero Pack-Kenki manufactured by Mitsubishi Gas Chemical Company, Inc.) were included in one container (pouch) which was not permeable to oxygen. Then, the container was sealed, so that a BOD container was prepared. The BOD container was left at room temperature (approximately 25° C.) for approximately 2 hours, so that an inner atmosphere of the container became the deoxygenated atmosphere. Thereafter, the BOD container was left in a thermostatic chamber set at 5° C., 10° C., 20° C., 30° C., 40° C., or 50° C. for a certain period of time. Here, (a) the BOD solution without any additive was left for 1 day, 3 days, 7 days, 14 days, or 29 days, (b) the BOD solution containing L-ascorbic acid was left for 1 day, 3 days, 7 days, or 14 days, and (c) the BOD solution containing uric acid was left for 1 day, 3 days, 8 days, 14 days, or 28 days. Three samples (BOD containers) were prepared for each condition. After leaving the BOD containers under the above conditions, the BOD solution was collected from each of the BOD containers and used as a BOD solution for evaluation. […]

O=C1O[C@H]([C@@H](O)CO)C(O)=C1O [L-ascorbic acid]
activity at 4000 µM (4 mM, 5° C., Day 0, read-out: Activity (%) Day 0): 100%
activity at 4000 µM (4 mM, 5° C., Day 1, read-out: Activity (%) Day 1): 92%
activity at 4000 µM (4 mM, 5° C., Day 3, read-out: Activity (%) Day 3): 95%
activity at 4000 µM (4 mM, 5° C., Day 7, read-out: Activity (%) Day 7): 107%
activity at 4000 µM (4 mM, 5° C., Day 14, read-out: Activity (%) Day 14): 55%
activity at 4000 µM (4 mM, 10° C., Day 0, read-out: Activity (%) Day 0): 100%
activity at 4000 µM (4 mM, 10° C., Day 1, read-out: Activity (%) Day 1): 101%
activity at 4000 µM (4 mM, 10° C., Day 3, read-out: Activity (%) Day 3): 120%
activity at 4000 µM (4 mM, 10° C., Day 7, read-out: Activity (%) Day 7): 146%
activity at 4000 µM (4 mM, 10° C., Day 14, read-out: Activity (%) Day 14): 147%
activity at 4000 µM (4 mM, 20° C., Day 0, read-out: Activity (%) Day 0): 100%
activity at 4000 µM (4 mM, 20° C., Day 1, read-out: Activity (%) Day 1): 115%
activity at 4000 µM (4 mM, 20° C., Day 3, read-out: Activity (%) Day 3): 160%
activity at 4000 µM (4 mM, 20° C., Day 7, read-out: Activity (%) Day 7): 195%
activity at 4000 µM (4 mM, 20° C., Day 14, read-out: Activity (%) Day 14): 188%
activity at 4000 µM (4 mM, 30° C., Day 0, read-out: Activity (%) Day 0): 100%
activity at 4000 µM (4 mM, 30° C., Day 1, read-out: Activity (%) Day 1): 164%
activity at 4000 µM (4 mM, 30° C., Day 3, read-out: Activity (%) Day 3): 205%
activity at 4000 µM (4 mM, 30° C., Day 7, read-out: Activity (%) Day 7): 204%
activity at 4000 µM (4 mM, 30° C., Day 14, read-out: Activity (%) Day 14): 229%
activity at 4000 µM (4 mM, 40° C., Day 0, read-out: Activity (%) Day 0): 100%
activity at 4000 µM (4 mM, 40° C., Day 1, read-out: Activity (%) Day 1): 212%
activity at 4000 µM (4 mM, 40° C., Day 3, read-out: Activity (%) Day 3): 216%
activity at 4000 µM (4 mM, 40° C., Day 7, read-out: Activity (%) Day 7): 215%
activity at 4000 µM (4 mM, 40° C., Day 14, read-out: Activity (%) Day 14): 237%
activity at 4000 µM (4 mM, 50° C., Day 0, read-out: Activity (%) Day 0): 100%
activity at 4000 µM (4 mM, 50° C., Day 1, read-out: Activity (%) Day 1): 220%
activity at 4000 µM (4 mM, 50° C., Day 3, read-out: Activity (%) Day 3): 211%
activity at 4000 µM (4 mM, 50° C., Day 7, read-out: Activity (%) Day 7): 212%
activity at 4000 µM (4 mM, 50° C., Day 14, read-out: Activity (%) Day 14): 238%
increase of BOD activity as compared with that prior to leaving (4 mM, one day at not lower than 40° C.): ≥ 2 times
increase of BOD activity as compared with that prior to leaving (4 mM, seven days at 20° C.): ≥ 2 times
increase of BOD activity as compared with that prior to leaving (4 mM, three days at 30° C.): ≥ 2 times
BOD activity increase at 5° C. compared with not lower than 10° C.: not found to be increased to an extend that was achieved

O=c1[nH]c(=O)c2[nH]c(=O)[nH]c2[nH]1 [Uric acid, uric acid]
activity at 20000 µM (20 mM, 5° C., Day 0, read-out: Activity (%) Day 0): 100%
activity at 20000 µM (20 mM, 5° C., Day 1, read-out: Activity (%) Day 1): 116%
activity at 20000 µM (20 mM, 5° C., Day 3, read-out: Activity (%) Day 3): 113%
activity at 20000 µM (20 mM, 5° C., Day 8, read-out: Activity (%) Day 8): 140%
activity at 20000 µM (20 mM, 5° C., Day 14, read-out: Activity (%) Day 14): 137%
activity at 20000 µM (20 mM, 5° C., Day 28, read-out: Activity (%) Day 28): 144%
activity at 20000 µM (20 mM, 10° C., Day 0, read-out: Activity (%) Day 0): 100%
activity at 20000 µM (20 mM, 10° C., Day 1, read-out: Activity (%) Day 1): 123%
activity at 20000 µM (20 mM, 10° C., Day 3, read-out: Activity (%) Day 3): 123%
activity at 20000 µM (20 mM, 10° C., Day 8, read-out: Activity (%) Day 8): 159%
activity at 20000 µM (20 mM, 10° C., Day 14, read-out: Activity (%) Day 14): 144%
activity at 20000 µM (20 mM, 10° C., Day 28, read-out: Activity (%) Day 28): 169%
activity at 20000 µM (20 mM, 20° C., Day 0, read-out: Activity (%) Day 0): 100%
activity at 20000 µM (20 mM, 20° C., Day 1, read-out: Activity (%) Day 1): 134%
activity at 20000 µM (20 mM, 20° C., Day 3, read-out: Activity (%) Day 3): 137%
activity at 20000 µM (20 mM, 20° C., Day 8, read-out: Activity (%) Day 8): 179%
activity at 20000 µM (20 mM, 20° C., Day 14, read-out: Activity (%) Day 14): 173%
activity at 20000 µM (20 mM, 20° C., Day 28, read-out: Activity (%) Day 28): 206%
activity at 20000 µM (20 mM, 30° C., Day 0, read-out: Activity (%) Day 0): 100%
activity at 20000 µM (20 mM, 30° C., Day 1, read-out: Activity (%) Day 1): 144%
activity at 20000 µM (20 mM, 30° C., Day 3, read-out: Activity (%) Day 3): 181%
activity at 20000 µM (20 mM, 30° C., Day 8, read-out: Activity (%) Day 8): 202%
activity at 20000 µM (20 mM, 30° C., Day 14, read-out: Activity (%) Day 14): 212%
activity at 20000 µM (20 mM, 30° C., Day 28, read-out: Activity (%) Day 28): 215%
activity at 20000 µM (20 mM, 40° C., Day 0, read-out: Activity (%) Day 0): 100%
activity at 20000 µM (20 mM, 40° C., Day 1, read-out: Activity (%) Day 1): 176%
activity at 20000 µM (20 mM, 40° C., Day 3, read-out: Activity (%) Day 3): 206%
activity at 20000 µM (20 mM, 40° C., Day 8, read-out: Activity (%) Day 8): 216%
activity at 20000 µM (20 mM, 40° C., Day 14, read-out: Activity (%) Day 14): 194%
activity at 20000 µM (20 mM, 40° C., Day 28, read-out: Activity (%) Day 28): 217%
activity at 20000 µM (20 mM, 50° C., Day 0, read-out: Activity (%) Day 0): 100%
activity at 20000 µM (20 mM, 50° C., Day 1, read-out: Activity (%) Day 1): 210%
activity at 20000 µM (20 mM, 50° C., Day 3, read-out: Activity (%) Day 3): 196%
activity at 20000 µM (20 mM, 50° C., Day 8, read-out: Activity (%) Day 8): 175%
activity at 20000 µM (20 mM, 50° C., Day 14, read-out: Activity (%) Day 14): 195%
activity at 20000 µM (20 mM, 50° C., Day 28, read-out: Activity (%) Day 28): 174%
increase of BOD activity as compared with that prior to leaving (20 mM, eight days at 20° C.): approximately 1.8 times
increase of BOD activity as compared with that prior to leaving (20 mM, three days at 30° C.): approximately 1.8 times
BOD activity increase at 5° C. compared with not lower than 10° C.: not found to be increased to an extend that was achieved
